Measurements taken from PubChem BioAssay AID1645864 (Buhrlage Lab, Dana-Farber Cancer Institute and Novartis …, 2021).
Activity calls are given as the source filed them.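 Rule for the calls: active = maximal inhibition of USP17 at or above 30% in the confirmation dose-response, a value not among the printed readouts; inactive = the rest.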

biological target: Ubiquitin carboxyl-terminal hydrolase 17-like protein 5 (Homo sapiens) (UniProt A8MUK1); assay: ubiquitin-specific protease 17 inhibitors, concentration series, biochemical, verification of primary actives (AID 1645864); settings: purified USP17, ubiquitin-rhodamine cleavage fluorescence, 3 h
Sequence (A8MUK1 whole entry, looked up): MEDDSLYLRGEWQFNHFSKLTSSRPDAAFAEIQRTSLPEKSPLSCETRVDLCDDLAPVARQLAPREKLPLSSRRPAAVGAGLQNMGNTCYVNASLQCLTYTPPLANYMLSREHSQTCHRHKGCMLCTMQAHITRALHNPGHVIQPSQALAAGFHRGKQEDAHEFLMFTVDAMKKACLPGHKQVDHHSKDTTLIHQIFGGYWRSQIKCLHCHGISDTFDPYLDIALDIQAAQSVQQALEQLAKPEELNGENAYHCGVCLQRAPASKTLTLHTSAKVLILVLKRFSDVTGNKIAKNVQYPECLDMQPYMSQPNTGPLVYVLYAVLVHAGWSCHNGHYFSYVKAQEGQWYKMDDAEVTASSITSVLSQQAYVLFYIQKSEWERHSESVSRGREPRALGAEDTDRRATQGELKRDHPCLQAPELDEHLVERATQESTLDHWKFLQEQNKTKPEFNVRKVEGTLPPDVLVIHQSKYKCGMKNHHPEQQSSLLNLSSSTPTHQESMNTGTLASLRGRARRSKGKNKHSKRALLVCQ

| Structure (SMILES) | IC50 |
| --- | --- |
| Cc1ccc2c(c1)N(Cc1nc(-c3ccc(F)cc3)no1)C(=O)CO2 | > 50 µM (inactive) |
| Cc1cccc(-n2ccnc(SCC(=O)Nc3ccc(Cl)cc3F)c2=O)c1 | 2.21 µM |
| CSc1cccc(C(=O)Nc2ccc(-c3nc4ccccc4[nH]3)cc2)c1 | 9.57 µM |
| CC1(C)OC2=C(C(=O)c3cc(O)cc(O)c3C2=O)c2cc(CO)c(O)cc21 | 5.7 µM |
| COc1ccc(C(=O)CSc2nnc(-c3cccnc3)n2-c2ccccc2)cc1 | > 50 µM (inactive) |
| Cc1ccc(-c2ncc(C(=O)NCc3cccc(C)c3)c(-c3ccncc3)n2)cc1 | > 50 µM (inactive) |
| Cc1ccc2c(c1)c(=O)c(C(=O)c1ccccc1)cn2CC(=O)Nc1ccc2c(c1)OCCO2 | 3.16 µM |
| CCN1CCCC1CN(Cc1cc2cc(OC)ccc2[nH]c1=O)C(=O)NCc1ccccc1 (stereo unspecified) | > 50 µM (inactive) |
| COc1cccc2c1C(=O)c1ccc3c(c1C2=O)C(=O)CC(C)(O)C3 (stereo unspecified) | 36.4 µM |
| COc1ccc(OC)c(-c2c(C#N)c(C)nc3c2N2CCC3CC2)c1 | 6.92 µM |
| Cc1ccc(CNC(=O)c2cccc(N3C(=O)N4CCc5c([nH]c6ccccc56)[C@@]4(C)C3=O)c2)cc1 | 23.1 µM |
| COC(=O)[C@]1(O)O[C@@]2(C(=O)OC)c3c(oc4cc(C)cc(O)c4c3=O)[C@H]3c4c(oc5cc(C)cc(O)c5c4=O)C[C@H]1[C@H]32 | > 50 µM (inactive) |
| COc1ccc(-c2nc(SCC(=O)Nc3ccc(C(C)=O)cc3)n[nH]2)cc1 | 10.8 µM |
| COc1ccc(NC(=O)C2CC(=O)Nc3cc(-c4ccccc4)nn32)cc1 (stereo unspecified) | 22.9 µM |
| O=C(Nc1cccc(-c2nc3ccccc3[nH]2)c1)c1cc2ccccc2oc1=O | 0.429 µM |
| CC(C)(C)C(=O)NC(c1ccccc1)c1nnc(N2CCOCC2)o1 (stereo unspecified) | > 50 µM (inactive) |
| CCCCNC(=O)c1cc2cccnc2n(Cc2ccccc2)c1=O | > 50 µM (inactive) |
| Cc1ccc(C)c(NS(=O)(=O)c2cc(-c3cnc(C4CC4)o3)ccc2C)c1 | 42.7 µM |
| Fc1cccc(Cn2cc(-c3noc(-c4ccncc4)n3)nn2)c1 | 28.7 µM |
| Cc1cnc(CN2CCCC(c3ccc4cn[nH]c4n3)C2)cn1 (stereo unspecified) | > 50 µM (inactive) |
| COc1ccc(/C=C\c2nccc3c2[nH]c2ccccc23)cc1 | > 50 µM (inactive) |
| N#Cc1cn(CC(=O)N2CCc3ccccc32)c2ccccc12 | 47.4 µM |
| O=C(Nc1ccccc1)C1CCCN(C(=O)c2cc3ccccc3[nH]2)C1 (stereo unspecified) | 38.7 µM |
| CCOC(=O)CSc1nnc(-c2cnn(-c3ccccc3)c2N)o1 | 20.5 µM |
| COc1ccc(-n2nnc(C(=O)Nc3ccccc3)c2N)cc1 | 26.8 µM |
| COc1ccc(OC)c(-c2cn3ccn(-c4ccc5c(c4)CCC5)c(=O)c3n2)c1 | > 50 µM (inactive) |

| Structure (SMILES) | IC50 |
| --- | --- |
| COc1ccc2nc(Nc3nc(-c4cnc(N5CCOCC5)nc4C)cc(=O)[nH]3)nc(C)c2c1 | > 50 µM (inactive) |
| O=C(NC1CCS(=O)(=O)C1)c1ccc(N2CCC(Cc3ccccc3)CC2)nn1 (stereo unspecified) | > 50 µM (inactive) |
| Cc1ccc(-n2c(=O)c3ccccc3n(Cc3c(F)cccc3Cl)c2=O)cc1 | 3.57 µM |
| Cc1nn(-c2cc(N3CCOCC3)ncn2)c(C)c1CCC(=O)Nc1ccc(C(C)C)cc1 | 29.1 µM |
| COc1ccc(CNC(=O)CN2C(=O)C(C)=C(c3ccc(C)cc3)S2(=O)=O)cc1 | > 50 µM (inactive) |
| O=C1c2ccccc2-n2c1nc1ccccc1c2=O | 4.91 µM |
| CCOc1ccc(-c2ccc3nnc(SCC(=O)Nc4cccc(C(C)=O)c4)n3n2)cc1 | 4.26 µM |
| COc1ccccc1-c1nc2c3c(ncn2n1)Oc1c(c(C)nn1-c1ccccc1)C3c1cccnc1 (stereo unspecified) | 5.68 µM |
| CC1CCN(c2cc(-n3cnc(C(=O)N4CCCC(C)C4)c3)ncn2)CC1 (stereo unspecified) | > 50 µM (inactive) |
| CC(C)(C)N=C1Nc2ncccc2NC12CCCN(C(=O)c1ccccc1)C2 (stereo unspecified) | > 50 µM (inactive) |
| COc1ccc(CCn2cnc3c([nH]c4ccccc43)c2=O)cc1 | 2.98 µM |
| Cc1cc(-c2ccnc3c(C#N)cnn23)c(C)s1 | 28.6 µM |
| Cc1nc(-c2noc(-c3ccncc3)n2)cn1CC(=O)N1CCN(c2ccc(F)cc2)CC1 | > 50 µM (inactive) |
| COc1ccccc1NC(=O)Cn1cc(C(=O)c2ccc(C)cc2)c(=O)c2ccccc21 | 22.9 µM |
| CC(C)N(C(=O)Cn1c(=O)[nH]c2ccccc21)c1ccccc1 | > 50 µM (inactive) |
| COCCNC(=O)c1ccnn1-c1ccc2ccc(-c3cccnc3)cn12 | > 50 µM (inactive) |
| CC(=O)c1oc2nc3c(c(-c4ccc(Cl)cc4)c2c1N)CCc1ccccc1-3 | > 50 µM (inactive) |
| CC(C)(C)C(=O)Nc1ccc(SCc2nnc(-c3ccccc3)o2)cc1 | > 50 µM (inactive) |
| O=C(NCc1cccnc1)c1cnn2c(C(F)(F)F)cc(-c3ccccc3)nc12 | > 50 µM (inactive) |
| O=C1c2c(O)cccc2C2(Oc3cccc4cccc(c34)O2)C2OC12 (stereo unspecified) | 10.1 µM |
| Oc1ccc(-c2nc3cnccn3c2NCCc2ccccc2)c(O)c1 | > 50 µM (inactive) |
| CCCC[C@@H](C)/C=C(C)/C=C(\C)C(=O)NC1=C[C@](O)(/C=C/C=C/C=C/C(=O)NC2=C(O)CCC2=O)[C@@H]2O[C@@H]2C1=O | 3.1 µM |
| O=C1CC(C(=O)Nc2ccccc2Cl)n2nc(-c3ccccc3)cc2N1 (stereo unspecified) | 28.7 µM |
| Cc1ccc2c(C)nc(Nc3ncc4c(n3)CC(c3ccco3)CC4=O)nc2c1 (stereo unspecified) | < 0.05 µM |
| O=C(NC(Cc1ccccc1)c1nc2ccccc2[nH]1)C1CC1 (stereo unspecified) | 49.7 µM |
| COc1cc2c(cc1OC)-c1cc(Nc3ccc(Br)cc3)nc(=O)n1CC2 | 1.65 µM |

| Structure (SMILES) | IC50 |
| --- | --- |
| O=C(Nc1cc(F)ccc1F)c1ccn(COc2ccc(F)c(Cl)c2)n1 | 38.4 µM |
| COc1ccc(-c2cc3nc([C@H](C)NC(=O)Cc4cccc(F)c4)nn3cn2)cc1 | 3.75 µM |
| COc1c(C)c(C(O)C(C)O)c2[nH]c3ccc(CC=C(C)C)cc3c2c1O (stereo unspecified) | 17.1 µM |
| Cc1ccc(CNC(=O)CCCn2c(=O)c3sccc3n(CC(=O)Nc3cc(Cl)ccc3C)c2=O)cc1 | 2.83 µM |
| CCOC(=O)c1cnn(-c2ccc(C(=O)Nc3ccc(C)c(Cl)c3)cc2)c1N | 2.35 µM |
| Cc1nn(-c2ccc([N+](=O)[O-])cc2)c(C)c1-c1nc2ccccc2[nH]1 | 33 µM |
| CNC(=O)c1cc2nc(N(C)C)n(-c3ccc(F)cc3)c2s1 | > 50 µM (inactive) |
| O=C(COc1nc2ccccc2nc1N1CCOCC1)Nc1cccc(S(=O)(=O)N2CCCCC2)c1 | > 50 µM (inactive) |
| CC1=C(c2ccc(F)cc2)S(=O)(=O)NC1=NCC(=O)Nc1cccc(F)c1 | 34.2 µM |
| O=c1[nH]c(-c2ccccn2)nc2c1CCN(Cc1cnn(-c3ccccc3)c1)C2 | > 50 µM (inactive) |
| Cc1cnc2nc3c(cc2c1)CN(S(=O)(=O)c1cc(F)ccc1C)CC3 | > 50 µM (inactive) |
| Cc1cc(NC(=O)c2cc(-c3cccnc3)n[nH]2)ccc1Br | 1.95 µM |
| CC1CCCCN1c1nc(F)c2c(c1F)S(=O)(=O)CCN2Cc1ccccc1 (stereo unspecified) | > 50 µM (inactive) |
| Fc1cccc(-n2cc(-c3noc(-c4ccc[nH]4)n3)nn2)c1 | 36.4 µM |
| COc1ccc(NC(=O)COc2cc(CSc3ccccc3)ncc2OC)cc1 | 43.7 µM |
| COc1cc(C)cc2c1C(=O)c1c(cc(O)c(Cl)c1O)C2=O | 1.57 µM |
| Cc1ccc(Nc2nc(NCCc3ccccc3)nc3c2cnn3C)cc1 | 44.6 µM |
| COc1ccc(CCNC(=O)c2noc3c2CCc2sccc2-3)cc1OC | 22 µM |
| COc1cccc(C(=O)Nc2ccc(-n3cnnn3)cc2)c1 | > 50 µM (inactive) |
| Cc1ccc(C(=O)NCc2ccc(C(=O)Nc3cccc(C)c3)o2)cc1 | 32.5 µM |
| COc1cccc(CN2CCc3nc4nc(C)ccc4cc3C2)c1 | > 50 µM (inactive) |
| Cc1ccccc1C(=O)Nc1ccc(Cc2ccc(NC(=O)c3ccccc3C)c(O)c2)cc1O | > 50 µM (inactive) |
| CC(=O)Nc1cc2cc(-n3cccc3)ccc2oc1=O | 3.83 µM |
| CC(=O)Nc1ccc(-n2cnc(C(=O)NC(C)c3ccccc3)c2)nc1 (stereo unspecified) | 29.2 µM |
| Cc1ccc(NC(=O)c2c3c(nc4ccccc24)CCCCC3)c(C)c1 | > 50 µM (inactive) |
| O=C(/C=C/c1ccc(F)cc1)N1CCc2ccccc2C1 | 37.3 µM |

| Structure (SMILES) | IC50 |
| --- | --- |
| Cc1ccc(C)c(CSC2=NCCN2C(=O)c2ccco2)c1 | > 50 µM (inactive) |
| CCC(C)Oc1cccc(C(=O)Nc2ccc(CN3CCOCC3)cc2)c1 (stereo unspecified) | > 50 µM (inactive) |
| O=C(Nc1cccc(F)c1)c1ncoc1-c1ccco1 | > 50 µM (inactive) |
| O=C(O)Cc1ccc(Nc2nc3ccccc3n3nnnc23)cc1 | > 50 µM (inactive) |
| CCC(=O)N1c2ccccc2NC2=C(C(=O)CC(c3ccccc3OCc3ccccc3)C2)C1c1ccccc1 (stereo unspecified) | 4.4 µM |
| Cc1cnc2nc3c(cc2c1)CN(CCc1ccc(Cl)cc1)CC3 | > 50 µM (inactive) |
| CN(Cc1ccccc1)S(=O)(=O)c1ccc2[nH]cc(C(=O)NCc3cccs3)c(=O)c2c1 | 0.749 µM |
| Cc1ccc([N+](=O)[O-])cc1S(=O)(=O)Nc1cc2sc(=O)oc2c2ccccc12 | 3.44 µM |
| Cn1ccc2c(cc(C(=O)NCCC3=CCCCC3)n2C)c1=O | > 50 µM (inactive) |
| O=C(CCC1CCCCC1)Nc1ccccc1C(=O)N1CCOCC1 | > 5 µM (inactive) |
| Cc1ccc(S(=O)(=O)c2cnc(SCC(=O)Nc3ccc(Cl)cc3)nc2N)cc1C | 29.8 µM |
| COc1ccc2nc(SCC(=O)Nc3ccc(NC(C)=O)cc3)c(C)cc2c1 | 6.42 µM |
| CCc1ccc(-n2c(=O)c3ccccc3n(CC(=O)NCCC3=CCCCC3)c2=O)cc1 | 17.9 µM |
| COc1ccc(OC)c(NC(=O)c2ccc(-n3nnnc3SC)cc2)c1 | 29.9 µM |
| O=C1CC(O)C(C2=CC(=O)c3c(O)cccc3C2=O)O1 (stereo unspecified) | 0.233 µM |
| CC(OC(=O)CNC(=O)c1ccc(Br)cc1)C(=O)Nc1ccc2c(c1)OCCO2 (stereo unspecified) | 30.4 µM |
| Cc1ccc(NC(=O)c2ccn(COc3ccc(F)cc3)n2)nc1 | 32.1 µM |
| O=c1ccc(-c2noc(Cc3c(F)cccc3Cl)n2)c[nH]1 | > 50 µM (inactive) |
| CN(C)Cc1ccc(C(=O)Nc2ccc(-c3nccs3)cc2)cc1 | > 50 µM (inactive) |
| COc1ccc(NC(=O)C2CC(=O)Nc3c(-c4ccc(Cl)cc4)cnn32)c(OC)c1 (stereo unspecified) | 9.36 µM |
| O=C(Nc1nc2c(s1)COCC2)c1cc(-c2ccco2)[nH]n1 | > 50 µM (inactive) |
| CC(=O)c1ccc(NC(=O)c2nc3ccccc3nc2N2CCOCC2)cc1 | > 50 µM (inactive) |
| O=C(Nc1cccc(Cl)c1)c1ncn2c1CNS(=O)(=O)c1ccccc1-2 | 6.05 µM |
